This assay concerns the target Human LDHA (Homo sapiens (Human), UniProt P00338). The experiment in a line: human LDHA primary biochemical assay. Particulars: biochemical LDHA inhibitory activity, assay of Example 1; activity level classes defined in nM. An excerpt: This example describes a human LDHA primary biochemical assay employed in the characterization of a compound of formula (I) in an embodiment of the invention.
Test compounds were placed in a Greiner Bio-One (Monroe, N.C.) 1536-well black solid bottom assay plate. 200 millimolar (mM) Tris HCl, pH 7.4, 100 micromolar (μM) EDTA and 0.01% TWEEN-20™, final concentration, was used as the assay buffer. The LDHA reagent was 2 nanomolar (nM) Human LDHA (Meridian Life Science, Inc., Memphis, Tenn.), final concentration, in assay buffer. The substrate reagent was 0.06 mM NADH and 0.2 mM sodium pyruvate, final concentration, in assay buffer. The resazurin/diaphorase coupling reagent was 0.037 mM resazurin and 0.133 milligrams per milliliter (mg/mL) diaphorase, final concentration, in assay buffer. The inhibition of LDHA activity was measured by fluorescence emission.

Bounds are passed on as bounds.

IC50 data for 23 compounds are collected here from patent publication US10954228B2 (NATIONAL INSTITUTES OF HEALTH, UNITED STATES DEPARTMENT OF …, priority 2016, dated 2021).

With `NS(=O)(=O)c1ccc(Cc2c(-c3ccc(F)c(-c4ccc(F)c(F)c4)c3)nn(-c3nc(C(=O)O)cs3)c2CC2CC2)cc1F` [Compound 136, 2-(5-(cyclopropylmethyl)-4-(3-fluoro-4-sulfamoylbenzyl)-3-(3′,4′,6-trifluoro-[1,1′-biphenyl]-3-yl)-1H-pyrazol-1-yl)thiazole-4-carboxylic acid], the IC50 is less than 100 nM.
The figure for `Cc1ccc(C#Cc2csc(-c3nn(-c4nc(C(=O)O)cs4)c(CC4CC4)c3Cc3ccc(S(N)(=O)=O)c(F)c3)c2)s1` [Compound 237, 2-(5-(cyclopropylmethyl)-4-(3-fluoro-4-sulfamoylbenzyl)-3-(4-((5-methylthiophen-2-yl)ethynyl)thiophen-2-yl)-1H-pyrazol-1-yl)thiazole-4-carboxylic acid] is 100 to 1000 nM; for `N#Cc1ccc(-c2cc(-c3nn(-c4nc(C(=O)O)cs4)c(CC4CC4)c3Cc3ccc(S(N)(=O)=O)c(F)c3)ccc2F)cc1` [Compound 201, 2-(3-(4′-cyano-6-fluoro-[1,1′-biphenyl]-3-yl)-5-(cyclopropylmethyl)-4-(3-fluoro-4-sulfamoylbenzyl)-1H-pyrazol-1-yl)thiazole-4-carboxylic acid] it is less than 100 nM; for `Cc1cc(-c2cc(-c3nn(-c4nc(C(=O)O)cs4)c(CC4CC4)c3Cc3ccc(S(N)(=O)=O)c(F)c3)ccc2F)ccc1C(C)C` [Compound 213, 2-[5-(cyclopropylmethyl)-3-[4-fluoro-3-(4-isopropyl-3-methylphenyl)phenyl]-4-[(3-fluoro-4-sulfamoylphenyl)methyl]pyrazol-1-yl]-1,3-thiazole-4-carboxylic acid] it is less than 100 nM.
The value for `CC(C)N1CC2(CN(c3cc(-c4nn(-c5nc(C(=O)O)cs5)c(CC5CC5)c4Cc4ccc(S(N)(=O)=O)c(F)c4)ccc3F)C2)C1` [Compound 158, 2-(5-(cyclopropylmethyl)-3-(4-fluoro-3-(6-isopropyl-2,6-diazaspiro[3.3]heptan-2-yl)phenyl)-4-(3-fluoro-4-sulfamoylbenzyl)-1H-pyrazol-1-yl)thiazole-4-carboxylic acid] was less than 100 nM.
The figure for `NS(=O)(=O)c1ccc(Cc2c(-c3ccc(F)c(-c4ccc(C(F)(F)C(F)(F)F)cc4)c3)nn(-c3nc(C(=O)O)cs3)c2CC2CC2)cc1F` [Compound 225, 2-(5-(cyclopropylmethyl)-3-(6-fluoro-4′-(perfluoroethyl)-[1,1′-biphenyl]-3-yl)-4-(3-fluoro-4-sulfamoylbenzyl)-1H-pyrazol-1-yl)thiazole-4-carboxylic acid] is 100 to 1000 nM; for `NS(=O)(=O)c1ccc(Cc2c(-c3cccc(-c4ccc5c(c4)CCC5)c3)nn(-c3nc(C(=O)O)cs3)c2CC2CC2)cc1F` [Compound 220, 2-(5-(cyclopropylmethyl)-3-(3-(2,3-dihydro-1H-inden-5-yl)phenyl)-4-(3-fluoro-4-sulfamoylbenzyl)-1H-pyrazol-1-yl)thiazole-4-carboxylic acid] it is less than 100 nM; for `Cc1ccc(-c2cccc(-c3nn(-c4nc(C(=O)O)cs4)c(CC4CC4)c3Cc3ccc(S(N)(=O)=O)c(F)c3)c2)nc1` [Compound 203, 2-(5-(cyclopropylmethyl)-4-(3-fluoro-4-sulfamoylbenzyl)-3-(3-(5-methylpyridin-2-yl)phenyl)-1H-pyrazol-1-yl)thiazole-4-carboxylic acid] it is less than 100 nM.
`CC(C)c1ccc(-c2cncc(-c3nn(-c4nc(C(=O)O)cs4)c(CC4CC4)c3Cc3ccc(S(N)(=O)=O)c(F)c3)c2)cc1` [Compound 210, 2-[5-(cyclopropylmethyl)-4-[(3-fluoro-4-sulfamoylphenyl)methyl]-3-[5-(4-isopropylphenyl)pyridin-3-yl]pyrazol-1-yl]-1,3-thiazole-4-carboxylic acid] had an IC50 of less than 100 nM.
The value for `CCc1cc(-c2cc(-c3nn(-c4nc(C(=O)O)cs4)c(CC4CC4)c3Cc3ccc(S(N)(=O)=O)c(F)c3)ccc2F)ccc1OC` [Compound 186, 2-(5-(cyclopropylmethyl)-3-(3′-ethyl-6-fluoro-4′-methoxy-[1,1′-biphenyl]-3-yl)-4-(3-fluoro-4-sulfamoylbenzyl)-1H-pyrazol-1-yl)thiazole-4-carboxylic acid] was 100 to 1000 nM.
The figure for `Cc1cc(-c2cc(-c3nn(-c4nc(C(=O)O)cs4)c(CC4CC4)c3Cc3ccc(S(N)(=O)=O)c(F)c3)ccc2F)ccc1F` [Compound 195, 2-(5-(cyclopropylmethyl)-3-(4′,6-difluoro-3′-methyl-[1,1′-biphenyl]-3-yl)-4-(3-fluoro-4-sulfamoylbenzyl)-1H-pyrazol-1-yl)thiazole-4-carboxylic acid] is less than 100 nM; for `Cc1cc(-c2cccc(-c3nn(-c4nc(C(=O)O)cs4)c(CC4CC4)c3Cc3ccc(S(N)(=O)=O)c(F)c3)c2)ccc1Cl` [Compound 170, 2-(3-(4′-chloro-3′-methyl-[1,1′-biphenyl]-3-yl)-5-(cyclopropylmethyl)-4-(3-fluoro-4-sulfamoylbenzyl)-1H-pyrazol-1-yl)thiazole-4-carboxylic acid] it is 1000 to 57000 nM; for `NS(=O)(=O)c1ccc(Cc2c(-c3cccc(C#Cc4ccc(C5CC5)s4)c3)nn(-c3nc(C(=O)O)cs3)c2CCC2CC2)cc1F` [Compound 244, 2-(5-(2-cyclopropylethyl)-3-(3-((5-cyclopropylthiophen-2-yl)ethynyl)phenyl)-4-(3-fluoro-4-sulfamoylbenzyl)-1H-pyrazol-1-yl)thiazole-4-carboxylic acid] it is 100 to 1000 nM.
The figure for `Cc1ncc(C#Cc2cccc(-c3nn(-c4nc(C(=O)O)cs4)c(CCC4CC4)c3Cc3ccc(S(N)(=O)=O)c(F)c3)c2)s1` [Compound 235, 2-(5-(2-cyclopropylethyl)-4-(3-fluoro-4-sulfamoylbenzyl)-3-(3-((2-methylthiazol-5-yl)ethynyl)phenyl)-1H-pyrazol-1-yl)thiazole-4-carboxylic acid] is less than 100 nM; for `Cc1ccc(C#Cc2cccc(-c3nn(-c4nc(C(=O)O)cs4)c(CCCC4CC4)c3Cc3ccc(S(N)(=O)=O)c(F)c3)c2)s1` [Compound 248, 2-(5-(3-cyclopropylpropyl)-4-(3-fluoro-4-sulfamoylbenzyl)-3-(3-((5-methylthiophen-2-yl)ethynyl)phenyl)-1H-pyrazol-1-yl)thiazole-4-carboxylic acid] it is 100 to 1000 nM.
The compound `Cc1ccc(-c2cccc(-c3nn(-c4nc(C(=O)O)cs4)c(CC4CC4)c3Cc3ccc(S(N)(=O)=O)c(F)c3)c2)cn1` [Compound 204, 2-(5-(cyclopropylmethyl)-4-(3-fluoro-4-sulfamoylbenzyl)-3-(3-(6-methylpyridin-3-yl)phenyl)-1H-pyrazol-1-yl)thiazole-4-carboxylic acid] showed an IC50 of less than 100 nM.
The compound `Cc1ccc(C#Cc2ccc(-c3nn(-c4nc(C(=O)O)cs4)c(CC4CC4)c3Cc3ccc(S(N)(=O)=O)c(F)c3)s2)s1` [Compound 233, 2-(5-(cyclopropylmethyl)-4-(3-fluoro-4-sulfamoylbenzyl)-3-(5-((5-methylthiophen-2-yl)ethynyl)thiophen-2-yl)-1H-pyrazol-1-yl)thiazole-4-carboxylic acid] gave an IC50 of 100 to 1000 nM.
The value for `Cc1ncc(-c2cccc(-c3nn(-c4nc(C(=O)O)cs4)c(CC4CC4)c3Cc3ccc(S(N)(=O)=O)c(F)c3)c2)cn1` [Compound 214, 2-[5-(cyclopropylmethyl)-4-[(3-fluoro-4-sulfamoylphenyl)methyl]-3-[3-(2-methylpyrimidin-5-yl)phenyl]pyrazol-1-yl]-1,3-thiazole-4-carboxylic acid] was less than 100 nM; that for `Cc1nc(C#Cc2cccc(-c3nn(-c4nc(C(=O)O)cs4)c(CC4CC4)c3Cc3ccc(S(N)(=O)=O)c(F)c3)c2)cs1` [Compound 236, 2-(5-(cyclopropylmethyl)-4-(3-fluoro-4-sulfamoylbenzyl)-3-(3-((2-methylthiazol-4-yl)ethynyl)phenyl)-1H-pyrazol-1-yl)thiazole-4-carboxylic acid] was less than 100 nM.
On to “2-(5-([1,1′-bi(cyclopropan)]-2-yl)-4- (3-fluoro-4-sulfamoylbenzyl)- 3-(3-((5-methylthiophen-2- yl)ethynyl)phenyl)-1H-pyrazol-1- yl)thiazole-4-carboxylic acid [Compound 134]”, for which the IC50 lay within 100 to 1000 nM.
As for `NS(=O)(=O)c1ccc(Cc2c(-c3cccc(-c4ccc(C5CC5)c(F)c4)c3)nn(-c3nc(C(=O)O)cs3)c2CC2CC2)cc1F` [Compound 171, 2-(3-(4′-cyclopropyl-3′-fluoro-[1,1′-biphenyl]-3-yl)-5-(cyclopropylmethyl)-4-(3-fluoro-4-sulfamoylbenzyl)-1H-pyrazol-1-yl)thiazole-4-carboxylic acid], the IC50 fell in the range of 1000 to 57000 nM.
The value for `NS(=O)(=O)c1ccc(Cc2c(-c3cccc(-c4ccc(CC(F)(F)F)cc4)c3)nn(-c3nc(C(=O)O)cs3)c2CC2CC2)cc1F` [Compound 187, 2-(5-(cyclopropylmethyl)-4-(3-fluoro-4-sulfamoylbenzyl)-3-(4′-(2,2,2-trifluoroethyl)-[1,1′-biphenyl]-3-yl)-1H-pyrazol-1-yl)thiazole-4-carboxylic acid] was 100 to 1000 nM; that for `CCc1cc(-c2cccc(-c3nn(-c4nc(C(=O)O)cs4)c(CC4CC4)c3Cc3ccc(S(N)(=O)=O)c(F)c3)c2)ccc1OC` [Compound 182, 2-(5-(cyclopropylmethyl)-3-(3′-ethyl-4′-methoxy-[1,1′-biphenyl]-3-yl)-4-(3-fluoro-4-sulfamoylbenzyl)-1H-pyrazol-1-yl)thiazole-4-carboxylic acid] was 100 to 1000 nM.
